Experimental data: US10294202B2, “Pyrrolidinones as herbicides” (FMC Corporation, priority 2013, dated 2019)

Experiments:
[1] = system: ragweed; assay: Test C pre-/postemergence herbicide test; assay type: in vivo, Ambrosia elatior
Outline: (§1)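 Pre-emergence: seeds sown in loam/sand blend and treated with compound in surfactant-containing solvent. Post-emergence: plants at 2–18 cm (1- to 4-leaf stage) in peat-based medium sprayed with the same formulation. Visual rating versus controls after 13–15 days in greenhouse, scale 0 (no effect) to 100 (complete control).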

[2] = system: barnyardgrass; assay: Test C pre-/postemergence herbicide test; assay type: in vivo, Echinochloa crus-galli
Outline: as §1

[3] = system: blackgrass; assay: Test C pre-/postemergence herbicide test; assay type: in vivo, Alopecurus myosuroides
Outline: as §1

[4] = system: sedge, umbrella; assay: Test B flooded paddy test; assay type: in vivo, Cyperus difformis; details: Flood, scale of 0 to 100 where 0 is no effect and 100 is complete control
Outline: (§2)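 First, plants reach the 2-leaf stage; next, pots are flooded to 3 cm and compound is delivered into the water; finally, after 13 to 15 greenhouse days at constant depth, injury is graded visually from 0 to 100 against controls.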

[5] = system: giant foxtail; assay: Test A pre-/postemergence herbicide test; assay type: in vivo, Setaria faberii
Outline: (§3)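 Seeds in loam–sand blend received preemergence directed soil spray; separately, plants 2–10 cm at one- to two-leaf stage received postemergence spray, both with test chemicals in non-phytotoxic solvent with surfactant. After ~10 days in greenhouse, injury rated visually against untreated controls, 0 (no effect) to 100 (complete control).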

[6] = system: crabgrass, large; assay: Test C pre-/postemergence herbicide test; assay type: in vivo, Digitaria sanguinalis
Outline: as §1

[7] = system: morningglory; assay: Test C pre-/postemergence herbicide test; assay type: in vivo, Ipomoea coccinea
Outline: as §1

[8] = system: rice; assay: Test B flooded paddy test; assay type: in vivo, Oryza sativa; details: Flood, scale of 0 to 100 where 0 is no effect and 100 is complete control
Outline: as §2

[9] = system: ducksalad; assay: Test B flooded paddy test; assay type: in vivo, Heteranthera limosa; details: Flood, scale of 0 to 100 where 0 is no effect and 100 is complete control
Outline: as §2

[10] = system: soybean; assay: Test C pre-/postemergence herbicide test; assay type: in vivo, Glycine max
Outline: as §1

[11] = system: barnyardgrass; assay: Test B flooded paddy test; assay type: in vivo, Echinochloa crus-galli; details: Flood, scale of 0 to 100 where 0 is no effect and 100 is complete control
Outline: as §2

[12] = system: corn; assay: Test A pre-/postemergence herbicide test; assay type: in vivo, Zea mays
Outline: as §3

[13] = system: barnyardgrass; assay: Test A pre-/postemergence herbicide test; assay type: in vivo, Echinochloa crus-galli
Outline: as §3

[14] = Preemergence, 62 g ai/ha, scale 0 to 100 (0 no effect, 100 complete control)
[15] = Preemergence, 125 g ai/ha, scale 0 to 100
[16] = Preemergence, 31 g ai/ha, scale 0 to 100, 0 is no effect and 100 is complete control
[17] = Preemergence, 125 g ai/ha, scale 0 to 100 (0 no effect, 100 complete control)
[18] = Postemergence, 125 g ai/ha, visual rating on 0 to 100 scale (0 no effect, 100 complete control), approx. 10 days
[19] = Postemergence, 500 g ai/ha, 0 to 100 scale (0 no effect, 100 complete control)
[20] = Preemergence, 125 g ai/ha, 0 to 100 scale where 0 is no effect and 100 is complete control
[21] = Preemergence, 500 g ai/ha, visual rating on 0 to 100 scale (0 no effect, 100 complete control)
[22] = Postemergence, 31 g ai/ha, scale 0 to 100 (0 no effect, 100 complete control)
[23] = Postemergence, 62 g ai/ha, scale 0 (no effect) to 100 (complete control)
[24] = Postemergence, 125 g ai/ha, scale 0 to 100 (0 no effect, 100 complete control)
[25] = Postemergence, 250 g ai/ha, scale 0 to 100 (0 no effect, 100 complete control)
[26] = Postemergence, 125 g ai/ha, 0 to 100 scale, 0 is no effect, 100 is complete control
[27] = preemergence, 500 g ai/ha, 0 to 100 scale, 0 is no effect and 100 is complete control

For `O=C1NCC(c2cccc(Br)c2)C1C(=O)Nc1ccccc1F` (centres unmarked) [Compound 307], the “Ragweed plant response rating” value [1, 14] was 0, the “Plant response rating, Ragweed” value [1, 15] was 0 and the “Plant response rating (scale of 0 to 100), Ragweed” value ([1]; Preemergence, 250 g ai/ha) was 35. The “Barnyardgrass plant response rating” value [2, 16] was 40, the “Barnyardgrass plant response rating” value [2, 14] was 70 and the “Plant response rating, Barnyardgrass” value [2, 17] was 85. For the same compound, the “Plant response rating (scale of 0 to 100; 0 is no effect, 100 is complete control), Barnyardgrass” value ([2]; Preemergence, 250 g ai/ha) was 95, the “Blackgrass plant response rating” value [3, 16] was 0 and the “Blackgrass plant response rating” value [3, 14] was 0. The “Plant response rating, Blackgrass” value [3, 15] was 10, the “Plant response rating (scale of 0 to 100), Blackgrass” value ([3]; Preemergence, 250 g ai/ha) was 5 and the “Plant response rating, Sedge, Umbrella” value ([4]; 500 g ai/ha) was 0. For the same compound, the “Plant response rating, Foxtail, Giant” value [5, 18] was 70, the “Plant response rating, Foxtail, Giant” value [5, 19] was 80 and the “Plant response rating, Foxtail, Giant” value [5, 20] was 80. For the same compound, the “Foxtail, Giant plant response rating” value [5, 21] was 90, the “Crabgrass, Large plant response rating” value [6, 16] was 90 and the “Crabgrass, Large plant response rating” value [6, 14] was 95. For the same compound, the “Plant response rating, Crabgrass, Large” value [6, 15] was 95, the “Plant response rating (scale of 0 to 100), Crabgrass, Large” value ([6]; Preemergence, 250 g ai/ha) was 100 and the “Morningglory plant response rating” value [7, 16] was 0. For the same compound, the “Morningglory plant response rating” value [7, 14] was 0, the “Plant response rating, Morningglory” value [7, 15] was 0 and the “Plant response rating (scale of 0 to 100), Morningglory” value ([7]; Preemergence, 250 g ai/ha) was 0. The “Plant response rating, Rice” value ([8]; 500 g ai/ha) was 0, the “Plant response rating, Ducksalad” value ([9]; 500 g ai/ha) was 98 and the “Soybean plant response rating” value [10, 14] was 0. The “Plant response rating, Soybean” value [10, 15] was 0, the “Plant response rating (scale of 0 to 100), Soybean” value ([10]; Preemergence, 250 g ai/ha) was 0 and the “Plant response rating, Barnyardgrass” value ([11]; 500 g ai/ha) was 65. For the same compound, the “Plant response rating, Corn” value [12, 18] was 0, the “Plant response rating, Corn” value [12, 19] was 60 and the “Plant response rating, Barnyardgrass” value [13, 18] was 70. The “Plant response rating, Barnyardgrass” value [13, 19] was 90, the “Plant response rating, Barnyardgrass” value [13, 20] was 80 and the “Barnyardgrass plant response rating” value [13, 21] was 90.

With `Cc1cccc(NC(=O)C2C(=O)NCC2c2cccc(C(F)(F)F)c2)c1` (centres unmarked) [Compound 317] the “Plant response rating, Ragweed” value [1, 22] was 0, the “Plant response rating, Ragweed” value [1, 23] was 0 and the “Plant response rating, Ragweed” value [1, 24] was 25. The “Plant response rating, Ragweed” value [1, 25] was 40, the “Ragweed plant response rating” value [1, 14] was 0 and the “Plant response rating, Ragweed” value [1, 15] was 0. The “Plant response rating, Barnyardgrass” value [2, 22] was 0, the “Plant response rating, Barnyardgrass” value [2, 23] was 0 and the “Plant response rating, Barnyardgrass” value [2, 24] was 25. The “Plant response rating, Barnyardgrass” value [2, 25] was 70, the “Barnyardgrass plant response rating” value [2, 16] was 90 and the “Barnyardgrass plant response rating” value [2, 14] was 90. The “Plant response rating, Barnyardgrass” value [2, 17] was 95, the “Plant response rating (scale of 0 to 100; 0 is no effect, 100 is complete control), Barnyardgrass” value ([2]; Preemergence, 250 g ai/ha) was 95 and the “Plant response rating, Blackgrass” value [3, 22] was 0. The “Plant response rating, Blackgrass” value [3, 23] was 0, the “Plant response rating, Blackgrass” value [3, 24] was 0 and the “Plant response rating, Blackgrass” value [3, 25] was 0. The “Blackgrass plant response rating” value [3, 16] was 0, the “Blackgrass plant response rating” value [3, 14] was 40 and the “Plant response rating, Blackgrass” value [3, 15] was 50. The “Plant response rating (scale of 0 to 100), Blackgrass” value ([3]; Preemergence, 250 g ai/ha) was 50, the “Plant response rating, Sedge, Umbrella” value ([4]; 500 g ai/ha) was 0 and the “Plant response rating, Foxtail, Giant” value [5, 18] was 80. The “Plant response rating, Foxtail, Giant” value [5, 19] was 90, the “Plant response rating, Foxtail, Giant” value [5, 20] was 90 and the “Foxtail, Giant plant response rating” value [5, 21] was 90. The “Plant response rating, Crabgrass, Large” value [6, 22] was 0, the “Plant response rating, Crabgrass, Large” value [6, 23] was 25 and the “Plant response rating, Crabgrass, Large” value [6, 24] was 45. The “Plant response rating, Crabgrass, Large” value [6, 25] was 50, the “Crabgrass, Large plant response rating” value [6, 16] was 95 and the “Crabgrass, Large plant response rating” value [6, 14] was 95. The “Plant response rating, Crabgrass, Large” value [6, 15] was 95, the “Plant response rating (scale of 0 to 100), Crabgrass, Large” value ([6]; Preemergence, 250 g ai/ha) was 98 and the “Plant response rating, Morningglory” value [7, 22] was 0. For the same compound, the “Plant response rating, Morningglory” value [7, 23] was 0, the “Plant response rating, Morningglory” value [7, 24] was 0 and the “Plant response rating, Morningglory” value [7, 25] was 10. For the same compound, the “Morningglory plant response rating” value [7, 16] was 25, the “Morningglory plant response rating” value [7, 14] was 0 and the “Plant response rating, Morningglory” value [7, 15] was 0. The “Plant response rating (scale of 0 to 100), Morningglory” value ([7]; Preemergence, 250 g ai/ha) was 0, the “Plant response rating, Rice” value ([8]; 500 g ai/ha) was 0 and the “Plant response rating, Ducksalad” value ([9]; 500 g ai/ha) was 80. For the same compound, the “Plant response rating, Soybean” value [10, 22] was 0, the “Plant response rating, Soybean” value [10, 23] was 0 and the “Plant response rating, Soybean” value [10, 24] was 0. The “Plant response rating, Soybean” value [10, 25] was 0, the “Soybean plant response rating” value [10, 14] was 0 and the “Plant response rating, Soybean” value [10, 15] was 0. For the same compound, the “Plant response rating, Barnyardgrass” value ([11]; 500 g ai/ha) was 75, the “Plant response rating, Corn” value [12, 18] was 0 and the “Plant response rating, Corn” value [12, 19] was 20. The “Plant response rating, Barnyardgrass” value [13, 18] was 80, the “Plant response rating, Barnyardgrass” value [13, 19] was 90 and the “Plant response rating, Barnyardgrass” value [13, 20] was 90. For the same compound, the “Barnyardgrass plant response rating” value [13, 21] was 90.

For `O=C1NCC(c2ccc(C(F)(F)F)c(F)c2)C1C(=O)Nc1cccc(F)c1F` (racemic) [Compound 247], the “Ragweed plant response rating” value [1, 16] was 100, the “Ragweed plant response rating” value [1, 14] was 85 and the “Plant response rating, Ragweed” value [1, 17] was 70. For the same compound, the “Plant response rating (scale of 0 to 100), Ragweed” value ([1]; Preemergence, 250 g ai/ha) was 98, the “Barnyardgrass plant response rating” value [2, 16] was 15 and the “Barnyardgrass plant response rating” value [2, 14] was 85. The “Plant response rating, Barnyardgrass” value [2, 17] was 90, the “Plant response rating (scale of 0 to 100; 0 is no effect, 100 is complete control), Barnyardgrass” value ([2]; Preemergence, 250 g ai/ha) was 90 and the “Blackgrass plant response rating” value [3, 16] was 0. For the same compound, the “Blackgrass plant response rating” value [3, 14] was 50, the “Plant response rating, Blackgrass” value [3, 17] was 60 and the “Plant response rating (scale of 0 to 100), Blackgrass” value ([3]; Preemergence, 250 g ai/ha) was 70. For the same compound, the “Plant response rating, Sedge, Umbrella” value ([4]; 1000 g ai/ha) was 0, the “Plant response rating, Foxtail, Giant” value [5, 26] was 50 and the “Plant response rating, Foxtail, Giant” value [5, 19] was 80. The “Plant response rating, Foxtail, Giant” value [5, 20] was 80, the “Plant response rating, Foxtail, Giant” value [5, 27] was 90 and the “Crabgrass, Large plant response rating” value [6, 16] was 95. The “Crabgrass, Large plant response rating” value [6, 14] was 95, the “Plant response rating, Crabgrass, Large” value [6, 17] was 98 and the “Plant response rating (scale of 0 to 100), Crabgrass, Large” value ([6]; Preemergence, 250 g ai/ha) was 100. For the same compound, the “Morningglory plant response rating” value [7, 16] was 0, the “Morningglory plant response rating” value [7, 14] was 0 and the “Plant response rating, Morningglory” value [7, 17] was 5. The “Plant response rating (scale of 0 to 100), Morningglory” value ([7]; Preemergence, 250 g ai/ha) was 20, the “Plant response rating, Rice” value ([8]; 1000 g ai/ha) was 0 and the “Plant response rating, Ducksalad” value ([9]; 1000 g ai/ha) was 95. The “Soybean plant response rating” value [10, 16] was 0, the “Soybean plant response rating” value [10, 14] was 0 and the “Plant response rating, Soybean” value [10, 17] was 0. The “Plant response rating (scale of 0 to 100), Soybean” value ([10]; Preemergence, 250 g ai/ha) was 0, the “Plant response rating, Barnyardgrass” value ([11]; 1000 g ai/ha) was 85 and the “Plant response rating, Corn” value [12, 26] was 0. For the same compound, the “Plant response rating, Corn” value [12, 19] was 20, the “Plant response rating, Corn” value [12, 20] was 0 and the “Plant response rating, Corn” value [12, 27] was 0. For the same compound, the “Plant response rating, Barnyardgrass” value [13, 26] was 60, the “Plant response rating, Barnyardgrass” value [13, 19] was 80 and the “Plant response rating, Barnyardgrass” value [13, 20] was 90. The “Plant response rating, Barnyardgrass” value [13, 27] was 90.
